Results as given in US10781182B2, “Compounds, process for obtaining the compounds, pharmaceutical composition, use of the compounds and method for treating psychiatric disorders and/or sleep disorders” (ACHÉ LABORATÓRIOS FARMACÊUTICOS S.A., priority 2016, dated 2020).
In brackets after ≈: the same amount, converted by molar mass.

Assays:
[1] = Permeability in Caco-2 cells; type: in vitro ADME; details: human, Caco-2, pH 6.5, 37° C.; for Papp A→B at 60 min: apical to basolateral, read-out: Permeability A-B (pH 6.5/7.4); for Papp B→A at 40 min: basolateral to apical, read-out: Permeability B-A (pH 6.5/7.4)
Experimental: Permeability tests were performed using Caco-2 cells, a colorectal epithelial adenocarcinoma cell line. These cells resemble intestinal epithelial cells in some aspects, such as the formation of a polarized monolayer, a well-defined brush border on the apical surface, and intercellular junctions.
The test is performed in both directions [apical to basolateral (A-B) and basolateral to apical (B-A)] through the cell monolayer, allowing an efflux ratio that provides an indicator as to whether a compound undergoes active efflux. Particle detection was performed with HPLC-MS/MS (mass spectrometry) according to the calculation of the peak area of the result. MS/MS was performed by combining two mass detectors in a single instrument.
A-B permeability was performed at pH 6.5/7.4 with incubation time of 0 and 60 minutes at 37° C. and B-A permeability was performed at pH 6.5/7.4 with incubation time of 0 and 40 minutes at 37° C.

CYP2C9 = CYP2C9 (Homo sapiens (Human), UniProt P11712); assay: CYP inhibition, fluorogenic substrate; type: in vitro ADME; design: dose or concentration left out as unconfirmed; details: recombinant CYP2C9, pH 7.4
Excerpt: (§1) The CYP inhibition test used fluorogenic substrates specific to each CYP to check for inhibition thereof by detection of the expected metabolite using a fluorimetric method. Recombinant CYPs (CYP2B6, CYP2C8, […], CYP2C19, CYP2D6, CYP3A4) from specific humans for each cytochrome family, subfamily and polypeptide were used. The following were used as substrates: CEC (3-Cyano-7-Ethoxycoumarin) which forms as metabolite CHC (3-Cyano-7-Hydroxycoumarin); EFC (7-Ethoxy-4-trifluoromethyl coumarin), forming the metabolite HFC (7-Hydroxytri fluoromethylcoumarin); DBF (Dibenzylfluorescein) and its respective fluorescein metabolite; MFC (7-Methoxy-4-trifluoromethylcoumarin) which forms the metabolite HFC (7-Hydroxytrifluoromethylcoumarin); BFC (7-Benzyloxy-Trifluoromethylcoumarin) and its metabolite HFC; and BzRes (benzyloxyresorufin) to form resofurine. The detection of the metabolite was done with a fluorimetric method: analytical technique to identify and characterize the amount of substance by excitation using a beam of ultraviolet light and measurement of the emitted fluorescence. For detection, a 96-well plate was used. Each sample was tested in two wells (n=2) as standard condition. At least 04 wells were separated for vehicle (control). Compounds were tested at a concentration […], standard for this assay. They were preincubated with a NADPH generator system in a phosphate buffer (pH 7.4) for 5 minutes at 37° C. The reaction was started by adding the specific CYP enzymes, substrate and bovine serum albumin (BSA<0.4 mg/ml). Incubations were performed between 20-50 minutes at 37° C. according to the specific parameter of each fluorogenic substrate, for the evaluated component. Fluorescence at each well was detected before and after the incubation period.

CYP2C8 = CYP2C8 (Homo sapiens (Human), UniProt P10632); assay: CYP inhibition, fluorogenic substrate; type: in vitro ADME; design: dose or concentration left out as unconfirmed; details: recombinant CYP2C8, pH 7.4
Excerpt: as §1

CYP2C19 = CYP2C19 (Homo sapiens (Human), UniProt P33261); assay: CYP inhibition, fluorogenic substrate; type: in vitro ADME; design: dose or concentration left out as unconfirmed; details: recombinant CYP2C19, pH 7.4
Excerpt: as §1

CYP2B6 = CYP2B6 (Homo sapiens (Human), UniProt P20813); assay: CYP inhibition, fluorogenic substrate; type: in vitro ADME; design: dose or concentration left out as unconfirmed; details: recombinant CYP2B6, pH 7.4
Excerpt: as §1

CYP2D6 = CYP2D6 (Homo sapiens (Human), UniProt P10635); assay: CYP inhibition, fluorogenic substrate; type: in vitro ADME; design: dose or concentration left out as unconfirmed; details: recombinant CYP2D6, pH 7.4
Excerpt: as §1

[2] = test system: rat hepatocytes (Sprague-Dawley males); assay: Intrinsic clearance in cryopreserved rat hepatocytes; type: in vitro ADME
Experimental: (§2) Cryopreserved hepatocytes from humans, rats (Sprague-Dawley males) and from mice (CD-1 males) were used for incubation at different times (0, 0.5, 1, 1.5, 2 hours) at 37° C. followed by HPLC-MS/MS detection. The aim was to verify the clearance time of the test substance on hepatocytes. The experiment was performed on a 96-well plate and the cryopreserved hepatocytes were thawed and resuspended in Krebs-Heinslet buffer(pH 7.3). The reaction was started by adding each test compound to each cell suspension and performing the incubation at the times indicated above. The reaction was quenched with addition of acetonitrile in the wells and detection by HPLC-MS/MS (mass spectrometry). MS/MS is performed by combining two mass detectors into a single instrument.

[3] = Water solubility (shake-flask, PBS pH 7.4); type: physicochemical; details: aqueous buffer, thermodynamic from solid
Experimental: In addition, chromatographic purity (%) was defined as the calculation of the main peak area relative to the calculation of the peak area integrate of the standard HPLC calibration chromatogram. A standard calibration chromatogram was then generated for each compound tested along with a UV/VIS spectrum with maximal labeled absorbance. The shake-flash technique was used with constant stirring during incubation to keep a uniform medium for 24 hours in PBS at pH 7.4.

[4] = test system: mouse hepatocytes (CD-1 males); assay: Intrinsic clearance in cryopreserved mouse hepatocytes; type: in vitro ADME
Experimental: as §2

human hepatocytes = assay: Intrinsic clearance in cryopreserved human hepatocytes; type: in vitro ADME
Experimental: as §2

[5] = Pharmacokinetics (PK) in rat, I.V. and oral; type: in vivo, Wistar-Han rats; details: oral 10 mg/kg; for AUC(0-t): Wistar-Han, plasma
Experimental: […] The study lasted for 2 weeks (including acclimation time and study), in which the route of administration was made by injection into the caudal vein and oral gavage. The treatment was carried out in a single dose: I.V. group with dose of 1 mg/kg and Oral group with dose of 10 mg/kg. […] Clinical observations were made twice a day (morning and afternoon) in the pre-dose at the 08 time points defined in the protocol. Blood collection was performed after euthanasia in the pre-dose animals at 08 defined time points and at 24 hours post-dose. The pharmacokinetic analysis parameters detected for Group IV were: half-life (t½), drug concentration at time zero (C0), last measurable plasma concentration (AUClast), area under the plasma concentration curve extrapolation percentage (AUC % ext), area under the plasma concentration curve extrapolation to infinity (AUCinf), volume of distribution (Vz), steady state volume of distribution (Vss), clearance (CL) and mean residence time (MRT). The parameters evaluated for the Oral group were: bioavailability (F %), maximum concentration reached (Cmax), time to reach maximum plasma concentration (Tmax), last measurable plasma concentration (AUClast), area under the plasma concentration curve extrapolation percentage (AUC % ext), area under the plasma concentration curve extrapolation to infinity (AUCinf), area under the plasma concentration curve extrapolation to infinity versus dose (AUCinf/Dose), half-Life (t½), and mean residence time (MRT).

CYP1A2 = CYP1A2 (Homo sapiens (Human), UniProt P05177); assay: CYP inhibition, fluorogenic substrate; type: in vitro ADME; design: inhibition: dose or concentration left out as unconfirmed; details: human, recombinant CYP1A2, pH 7.4
Excerpt: as §1

[6] = oral, estimated, from literature; cited from earlier work
melatonin receptors = details: Depreux et al. 1994; cited from earlier work
[7] = conjugate acid, J. Org. Chem. 1961; cited from earlier work

CYP2C19, sequence (P33261 whole entry): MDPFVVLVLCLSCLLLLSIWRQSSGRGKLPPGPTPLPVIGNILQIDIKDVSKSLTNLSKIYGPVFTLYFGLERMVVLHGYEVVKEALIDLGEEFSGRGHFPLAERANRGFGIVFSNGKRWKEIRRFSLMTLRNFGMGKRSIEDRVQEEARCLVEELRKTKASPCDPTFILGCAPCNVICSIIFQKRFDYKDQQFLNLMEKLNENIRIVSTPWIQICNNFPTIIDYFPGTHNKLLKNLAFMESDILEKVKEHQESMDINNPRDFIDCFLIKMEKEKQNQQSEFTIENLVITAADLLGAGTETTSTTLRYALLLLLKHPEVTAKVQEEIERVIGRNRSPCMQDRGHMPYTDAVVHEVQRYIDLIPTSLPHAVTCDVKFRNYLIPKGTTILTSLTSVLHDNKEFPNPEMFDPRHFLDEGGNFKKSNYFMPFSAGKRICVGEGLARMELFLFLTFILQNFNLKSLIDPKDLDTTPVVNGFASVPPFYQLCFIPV
CYP2B6, sequence (P20813 whole entry): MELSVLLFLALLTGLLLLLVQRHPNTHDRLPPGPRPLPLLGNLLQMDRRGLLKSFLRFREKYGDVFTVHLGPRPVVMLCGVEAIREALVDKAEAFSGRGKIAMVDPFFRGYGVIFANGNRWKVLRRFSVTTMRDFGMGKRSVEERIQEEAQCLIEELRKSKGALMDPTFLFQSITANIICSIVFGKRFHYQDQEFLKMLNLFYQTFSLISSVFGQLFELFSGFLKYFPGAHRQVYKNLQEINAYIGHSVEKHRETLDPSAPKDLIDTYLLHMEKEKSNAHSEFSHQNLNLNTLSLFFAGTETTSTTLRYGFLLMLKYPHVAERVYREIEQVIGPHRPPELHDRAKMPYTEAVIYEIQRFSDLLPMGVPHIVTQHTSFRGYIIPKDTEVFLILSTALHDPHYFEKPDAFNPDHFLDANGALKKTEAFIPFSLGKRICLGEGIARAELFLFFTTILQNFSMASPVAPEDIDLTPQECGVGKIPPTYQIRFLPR
CYP2C8, sequence (P10632 whole entry): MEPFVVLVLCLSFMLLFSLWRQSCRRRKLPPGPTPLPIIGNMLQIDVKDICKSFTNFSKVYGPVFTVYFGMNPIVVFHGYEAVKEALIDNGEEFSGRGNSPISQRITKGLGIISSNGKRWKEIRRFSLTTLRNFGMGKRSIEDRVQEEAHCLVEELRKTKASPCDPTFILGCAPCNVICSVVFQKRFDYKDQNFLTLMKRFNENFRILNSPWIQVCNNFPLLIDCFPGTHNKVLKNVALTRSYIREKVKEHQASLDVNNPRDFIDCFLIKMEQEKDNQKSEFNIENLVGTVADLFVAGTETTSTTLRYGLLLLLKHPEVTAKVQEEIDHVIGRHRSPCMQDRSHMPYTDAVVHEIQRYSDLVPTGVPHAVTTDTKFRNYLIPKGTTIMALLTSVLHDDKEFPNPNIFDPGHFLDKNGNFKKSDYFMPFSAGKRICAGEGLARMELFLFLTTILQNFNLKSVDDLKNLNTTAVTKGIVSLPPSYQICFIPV
CYP2D6, sequence (P10635 whole entry): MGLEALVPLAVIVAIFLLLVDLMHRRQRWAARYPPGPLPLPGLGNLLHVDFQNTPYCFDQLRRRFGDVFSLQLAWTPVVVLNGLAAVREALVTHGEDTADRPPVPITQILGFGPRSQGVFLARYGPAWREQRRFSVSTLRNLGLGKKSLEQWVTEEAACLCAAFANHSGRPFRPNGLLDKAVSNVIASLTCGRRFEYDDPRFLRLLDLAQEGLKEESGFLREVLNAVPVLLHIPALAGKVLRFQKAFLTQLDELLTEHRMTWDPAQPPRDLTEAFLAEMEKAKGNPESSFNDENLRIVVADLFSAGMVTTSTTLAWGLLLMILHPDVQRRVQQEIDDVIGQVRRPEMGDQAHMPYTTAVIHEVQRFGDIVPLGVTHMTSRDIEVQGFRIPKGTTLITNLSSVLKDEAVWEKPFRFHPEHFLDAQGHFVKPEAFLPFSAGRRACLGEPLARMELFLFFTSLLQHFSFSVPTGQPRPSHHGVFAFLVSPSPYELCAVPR
CYP2C9, sequence (P11712 whole entry): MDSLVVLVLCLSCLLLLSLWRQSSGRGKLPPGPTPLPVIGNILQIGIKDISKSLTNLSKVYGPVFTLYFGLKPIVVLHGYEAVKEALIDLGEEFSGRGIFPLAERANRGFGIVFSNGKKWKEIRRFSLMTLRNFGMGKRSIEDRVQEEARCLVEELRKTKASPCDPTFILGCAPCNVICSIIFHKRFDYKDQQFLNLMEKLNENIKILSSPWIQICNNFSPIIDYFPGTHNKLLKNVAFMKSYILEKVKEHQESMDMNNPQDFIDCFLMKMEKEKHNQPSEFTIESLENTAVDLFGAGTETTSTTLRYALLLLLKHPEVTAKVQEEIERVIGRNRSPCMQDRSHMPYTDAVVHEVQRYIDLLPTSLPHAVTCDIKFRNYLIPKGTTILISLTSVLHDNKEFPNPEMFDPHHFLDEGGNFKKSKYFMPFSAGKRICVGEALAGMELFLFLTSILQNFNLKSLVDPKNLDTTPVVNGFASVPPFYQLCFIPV
CYP1A2, sequence (P05177 whole entry): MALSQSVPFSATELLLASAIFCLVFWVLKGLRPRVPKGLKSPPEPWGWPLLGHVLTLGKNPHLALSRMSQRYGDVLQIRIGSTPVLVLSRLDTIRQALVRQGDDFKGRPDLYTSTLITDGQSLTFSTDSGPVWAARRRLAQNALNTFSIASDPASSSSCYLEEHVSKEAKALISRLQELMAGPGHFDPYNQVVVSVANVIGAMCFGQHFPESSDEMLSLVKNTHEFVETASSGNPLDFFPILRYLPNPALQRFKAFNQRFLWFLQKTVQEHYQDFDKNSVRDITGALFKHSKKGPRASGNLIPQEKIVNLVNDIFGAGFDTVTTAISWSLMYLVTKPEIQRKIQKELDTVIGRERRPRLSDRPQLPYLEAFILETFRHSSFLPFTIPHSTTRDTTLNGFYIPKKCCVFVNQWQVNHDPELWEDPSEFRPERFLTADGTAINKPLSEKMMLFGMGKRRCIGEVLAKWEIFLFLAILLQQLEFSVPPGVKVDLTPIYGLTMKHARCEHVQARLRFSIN

SMILES	Papp A→B at 60 min [1]	Papp B→A at 40 min [1]	inhibition (CYP2C9)	inhibition (CYP2C8)	inhibition (CYP2C19)	inhibition (CYP2B6)	inhibition (CYP2D6)	Intrinsic clearance half-life, Rat Sprague-Dawley [2]	solubility at 24 h [3]	Intrinsic clearance half-life, Mouse CD-1 [4]	Intrinsic clearance half-life, Human (human hepatocytes)	AUC(0-t) [5]	AUClast [5]	inhibition (CYP1A2)	absolute bioavailability [6]	affinity, times lower than melatonin affinity (melatonin receptors)	pKa [7]
CCOc1nc2cc(Cl)c(OC)cc2n1CCNC(C)=O [IA2-121]	58.2 ×10⁻⁶ cm/s	32.1 ×10⁻⁶ cm/s	23.7%	7%	33.8%	8.4%	0.9%	0.867 h	200 µM (≈ 62.4 µg/mL)	>2 h	>2 h	–	–	–	–	–	–
COc1cc2c(cc1Cl)nc(OC)n2CCNC(C)=O [IA2-143]	21.3 ×10⁻⁶ cm/s	71.8 ×10⁻⁶ cm/s	-9.6%	-13%	10%	-1.1%	0.8%	1.8 h	197 µM (≈ 58.6 µg/mL)	–	–	4050 ng·h/mL	4049 ng·h/mL	1.4%	–	–	–
CCOc1nc2ccc(OC)cc2n1CCCNC(C)=O [IA2-120]	32.1 ×10⁻⁶ cm/s	29.5 ×10⁻⁶ cm/s	26.7%	9.1%	6.4%	7.9%	-0.3%	0.883 h	200 µM (≈ 58.3 µg/mL)	>2 h	>2 h	–	–	–	–	–	–
CCC(=O)NCC[C@@H]1CCc2ccc3c(c21)CCO3 [ramelteon]	–	–	–	–	–	–	–	–	–	–	–	–	–	–	1.8%	–	–
COc1ccc2ncn(CCNC(C)=O)c2c1 [N-[2-(6-methoxybenzimidazol-1-yl)-ethyl]acetamide]	–	–	–	–	–	–	–	–	–	–	–	–	–	–	–	approximately 3,200 times	–
CCOc1nc2cc(Cl)c(OC)cc2n1CCCNC(C)=O [IA2-142]	34 ×10⁻⁶ cm/s	57.8 ×10⁻⁶ cm/s	13%	-4.7%	27.7%	0.5%	6.9%	>2 h	181 µM (≈ 58.9 µg/mL)	>2 h	>2 h	–	–	–	–	–	–
c1ccc2[nH]cnc2c1 [unsubstituted benzimidazole, benzimidazole]	–	–	–	–	–	–	–	–	–	–	–	–	–	–	–	–	above 6
COc1ccc2nc(OC)n(CCCNC(C)=O)c2c1 [IA2-140]	27.3 ×10⁻⁶ cm/s	55.1 ×10⁻⁶ cm/s	2.6%	-2.2%	7.2%	0.4%	0.3%	>2 h	197 µM (≈ 54.7 µg/mL)	>2 h	>2 h	2440 ng·h/mL	–	-0.7%	–	–	–
